Reference: patent publication US20060079453A1, “Hla binding peptides and their uses” (priority 2002, published 2006)

Tests used:
Assay in all cases: biochemical
Assay type in all cases: binding
[1] = molecular target: HLA-DR DRB1*0101 (DR1) (Homo sapiens, UniProt P01903+P01911, A100R/D57E/F55L/F60I/F76Y/I96L/L162R/M171V/P40L/Q125E/R42F/V115G/Y59C); conditions: DRB1 *0101
[2] = molecular target: HLA-DR DRB1*0301 (DR3) (Homo sapiens, UniProt P01903+P01911, A100K/A102G/A103R/A169T/F55Y/I96L/K41T/L162R/M171V/P40S/Q125H/Q178H/Q39Y/R42S/S66N/T106N/T262R/W38E/Y61H)
Chain of HLA-DR DRB1*0301 (DR3) (P01903 26-254 limits assumed, other chains not shown): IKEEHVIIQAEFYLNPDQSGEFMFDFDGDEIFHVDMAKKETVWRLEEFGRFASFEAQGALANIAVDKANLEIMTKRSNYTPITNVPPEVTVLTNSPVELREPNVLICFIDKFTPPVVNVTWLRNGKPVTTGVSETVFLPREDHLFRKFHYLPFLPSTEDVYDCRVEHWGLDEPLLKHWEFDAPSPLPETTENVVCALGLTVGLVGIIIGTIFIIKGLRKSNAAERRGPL

[3] = molecular target: HLA-DR DRB1*0701 (DR7) (Homo sapiens, UniProt P01903+P01911, A100R/A102G/A103Q/D57E/D86V/E43K/F76Y/K127E/L162R/M171V/P40G/Q125H/Q99D/R33Q/R42Y/R54Q/S133A/S66F/T210M/V115G/Y107V/Y59L/Y89S); conditions: DRB1 *0701
[4] = molecular target: HLA-DR DRB1*0802 (DR8) (Homo sapiens, UniProt P01903+P01911, A100R/A103L/A169T/F76Y/H45Y/I96F/K41T/L162R/M171V/P40S/Q125H/Q178H/Q39Y/Q99D/R218S/R42G/S66Y/V115G/W38E)
[5] = molecular target: HLA-DR DRB1*0901 (DR9) (Homo sapiens, UniProt P01903+P01911, A100R/A103E/D57H/D86V/F55Y/F60I/F76Y/I96F/K127E/L162R/M171V/P40D/Q125H/Q99R/R33Q/R42F/S133A/S66N/T210M/V115G/W38K/Y107V/Y59G/Y89S); conditions: DRB1 *0901
[6] = molecular target: HLA-DR DRB1*1101 (DR11) (Homo sapiens, UniProt P01903+P01911, A100R/A169T/A87E/I96F/K41T/L162R/M171V/P40S/Q125H/Q178H/Q39Y/Q99D/R42S/S66Y/T262R/V115G/W38E); conditions: DRB1 *1101
Chain of HLA-DR DRB1*1101 (DR11) (P01903 26-254 limits assumed, other chains not shown): as above

[7] = molecular target: HLA-DR DRB1*1302 (DR13) (Homo sapiens, UniProt P01903+P01911, A100E/A169T/K41T/L162R/M171V/P40S/Q125H/Q178H/Q39Y/Q99D/R42S/S66N/T262R/V115G/W38E/Y61H); conditions: DRBI *1302
Chain of HLA-DR DRB1*1302 (DR13) (P01903 26-254 limits assumed, other chains not shown): as above

[8] = molecular target: HLA-DR DRB1*1501 (DR15) (Homo sapiens, UniProt P01903+P01911); conditions: DRBI *1501
[9] = molecular target: HLA-DR DRB3*0101 (DR52) (Homo sapiens, UniProt P01903+P79483)
[10] = molecular target: HLA-DR DRB4*0101 (DR53) (Homo sapiens, UniProt P01903+P13762, G164S); conditions: DRB4 *0101
[11] = molecular target: HLA-DR DRB5*0101 (DR51) (Homo sapiens, UniProt P01903+Q30154); conditions: DRB5 *0101
[12] = molecular target: HLA-DR DRB1*0401 (DR4) (Homo sapiens, UniProt P01903+P01911, A100K/A169T/F76Y/I96L/K127E/L162R/M171V/N62H/P40V/Q125Y/R42H/S133A/S149N/S66Y/V115G/V209L/W38E); conditions: DRB1 *0401

Row | SMILES | IC50 [1] [µM] | IC50 [2] [µM] | IC50 [3] [µM] | IC50 [4] [µM] | IC50 [5] [µM] | IC50 [6] [µM] | IC50 [7] [µM] | IC50 [8] [µM] | IC50 [9] [µM] | IC50 [10] [µM] | IC50 [11] [µM] | IC50 [12] [µM]
1 | CC(C)C[C@H](NC(=O)[C@H](CO)NC(=O)[C@H](CC(C)C)NC(=O)[C@H](CO)NC(=O)[C@H](C)NC(=O)[C@H](C)NC(=O)[C@H](CCCNC(=N)N)NC(=O)[C@H](C)NC(=O)[C@H](CC(C)C)NC(=O)[C@H](CC(C)C)NC(=O)[C@H](CC(C)C)NC(=O)[C@@H]1CCCN1C(=O)[C@H](C)NC(=O)[C@H](C)N)C(=O)NCC(=O)O | 0.0068 | 35.4 | 0.16 | 0.03 | 0.064 | 0.1 | 0.0032 | 0.035 | 10.5 | 0.079 | 0.079 | 
2 | CC[C@H](C)[C@H](NC(=O)[C@H](CS)NC(=O)[C@H](Cc1c[nH]cn1)NC(=O)[C@H](C)N)C(=O)N[C@@H](CCCNC(=N)N)C(=O)N[C@@H](CC(N)=O)C(=O)N[C@@H](CCCCN)C(=O)N[C@@H](CO)C(=O)N[C@H](C(=O)N[C@H](C(=O)N[C@@H](CC(C)C)C(=O)N[C@@H](CC(C)C)C(=O)NCC(=O)N[C@@H](CCCNC(=N)N)C(=O)N[C@@H](Cc1c[nH]cn1)C(=O)O)[C@@H](C)CC)C(C)C | 0.578 | 29.7 | 2.57 | 0.104 | 0.715 | 0.093 | 0.075 | 0.088 | 4.75 | 0.0087 | 3.63 | 0.069
3 | CC(C)C[C@H](NC(=O)[C@H](CO)NC(=O)[C@H](CC(C)C)NC(=O)[C@H](CO)NC(=O)[C@H](C)NC(=O)[C@H](C)NC(=O)[C@H](CCCNC(=N)N)NC(=O)[C@H](C)NC(=O)[C@H](CC(C)C)NC(=O)[C@H](CC(C)C)NC(=O)[C@H](CC(C)C)NC(=O)[C@@H]1CCCN1C(=O)[C@H](C)N)C(=O)NCC(=O)N[C@@H](Cc1ccccc1)C(=O)O | 0.0084 | 56.3 | 0.059 | 0.076 | 0.124 | 0.322 | 0.012 | 0.091 | 13.4 | 0.059 |  | 
4 | CSCC[C@H](NC(=O)[C@H](CC(C)C)NC(=O)[C@@H]1CCCN1C(=O)[C@@H](NC(=O)[C@@H](N)CS)[C@@H](C)O)C(=O)N[C@@H](Cc1ccc(O)cc1)C(=O)N[C@@H](CO)C(=O)N[C@@H](CC(C)C)C(=O)N[C@H](C(=O)N[C@@H](Cc1c[nH]cn1)C(=O)N[C@@H](CC(N)=O)C(=O)N[C@@H](CC(C)C)C(=O)N[C@H](C(=O)N[C@@H](CCCCN)C(=O)N[C@@H](CCC(=O)O)C(=O)O)[C@@H](C)O)C(C)C | 0.093 | 19.4 | 0.14 | 0.223 | 0.249 | 0.59 | 0.26 | 0.426 | 18.3 | 0.058 | 0.036 | 
5 | CC[C@H](C)[C@H](N)C(=O)N[C@@H](CCCCN)C(=O)N[C@@H](CCCCN)C(=O)N[C@@H](Cc1ccccc1)C(=O)N[C@@H](CC(C)C)C(=O)N[C@@H](Cc1ccc(O)cc1)C(=O)N[C@@H](CC(N)=O)C(=O)N[C@@H](Cc1ccccc1)C(=O)N[C@H](C(=O)N[C@@H](CCC(N)=O)C(=O)N[C@H](C(=O)N1CCC[C@H]1C(=O)N[C@@H](Cc1c[nH]cn1)C(=O)N[C@@H](CC(C)C)C(=O)N[C@@H](C)C(=O)O)[C@@H](C)CC)[C@@H](C)O | 0.449 | 8.08 | 0.029 | 0.512 | 0.16 | 0.137 | 0.027 | 0.305 | 0.477 | 0.096 |  | 0.043
6 | CC[C@H](C)[C@H](NC(=O)[C@@H]1CCCN1C(=O)[C@@H](N)CC(N)=O)C(=O)N[C@@H](CC(C)C)C(=O)N[C@@H](CC(C)C)C(=O)N[C@@H](Cc1c[nH]c2ccccc12)C(=O)N[C@@H](CCC(N)=O)C(=O)N1CCC[C@H]1C(=O)N[C@H](C(=O)N1CCC[C@H]1C(=O)N[C@H](C(=O)N[C@@H](Cc1c[nH]cn1)C(=O)N[C@H](C(=O)N[C@H](C(=O)N1CCC[C@H]1C(=O)O)C(C)C)[C@@H](C)O)C(C)C)[C@@H](C)CC | 0.031 | > 81.8 | 0.041 | 13 | 0.575 | 0.599 | 0.25 | 0.0046 | > 8.83 | 0.067 | 25 | 0.206
